Measurements as given in patent US5663186A, “Treatment of atherosclerosis with angiotensin II receptor blocking imidazoles” (Merck & Co., Inc., priority 1995, dated 1997).

Test system: patients with mild to moderate hypertension
Assay: Clinical study: sitting diastolic blood pressure
Assay type: in vivo
Details: for Peak Sitting Diastolic Blood Pressure, Mean (on treatment) / Mean Change in Peak Sitting Diastolic Blood Pressure / Change in Peak Sitting Diastolic Blood Pressure, adj. mean: peak (6 hours postdose)
Experimental: Sitting Diastolic Blood Pressure Results At Week 6 and 12
The changes from baseline blood pressure (primary=trough sitting diastolic blod pressure at weeks 6 and 12) were evaluated using a least squares analysis of the means based upon an analysis of covariance (covariate=baseline blood pressure)for a randomized block (block=investigator site) design. An "all-patients-treated" and a "per-protocol" analysis were performed. The study was designed to detect a 5 mmHg difference in mean change between treatments with 95% probability based upon a group size of 86 with an α of 0.05 (two-sided) and a standard deviation of 9 mmHg.

## CCCCc1nc(Cl)c(CO)n1Cc1ccc(-c2ccccc2-c2nnn[nH]2)cc1.[K] [Losartan, 2-n-butyl-4-chloro-1-[(2'-(tetrazol-5-yl)-1,1'-biphenyl-4-yl)-methyl]-1H-imidazole-5-methanol potassium salt]
6 wk, 50 mg, of 125
  Category I: Trough SDBP <90 mmHg, number of patients: 37
  Category I: Trough SDBP <90 mmHg, percent of patients: 29.6%
  Category II: Trough SDBP ≥90 mmHg, number of patients: 20
  Category II: Trough SDBP ≥90 mmHg, percent of patients: 16.0%
  Category III: Neither Category I or II, number of patients: 68
  Category III: Neither Category I or II, percent of patients: 54.4%
6 wk, 50/100 mg, of 118
  Category I: Trough SDBP <90 mmHg, number of patients: 37
  Category I: Trough SDBP <90 mmHg, percent of patients: 31.3%
  Category II: Trough SDBP ≥90 mmHg, number of patients: 21
  Category II: Trough SDBP ≥90 mmHg, percent of patients: 17.7%
  Category III: Neither Category I or II, number of patients: 60
  Category III: Neither Category I or II, percent of patients: 50.8%
12 wk, 50 mg, of 125
  Category I: Trough SDBP <90 mmHg, number of patients: 40
  Category I: Trough SDBP <90 mmHg, percent of patients: 32.0%
  Category II: Trough SDBP ≥90 mmHg, number of patients: 18
  Category II: Trough SDBP ≥90 mmHg, percent of patients: 14.4%
  Category III: Neither Category I or II, number of patients: 67
  Category III: Neither Category I or II, percent of patients: 53.6%
12 wk, 50/100 mg, of 118
  Category I: Trough SDBP <90 mmHg, number of patients: 37
  Category I: Trough SDBP <90 mmHg, percent of patients: 31.3%
  Category II: Trough SDBP ≥90 mmHg, number of patients: 24
  Category II: Trough SDBP ≥90 mmHg, percent of patients: 20.3%
  Category III: Neither Category I or II, number of patients: 57
  Category III: Neither Category I or II, percent of patients: 48.3%
6 wk, 50 mg, N 118, all-patients-treated
  Peak Sitting Diastolic Blood Pressure, Mean (on treatment): 90.2 mmHg
6 wk, 50 mg, N 118, baseline 99.9
  Mean Change in Peak Sitting Diastolic Blood Pressure: -9.7 mmHg
6 wk, 50 mg, N 118, least squares
  Change in Peak Sitting Diastolic Blood Pressure, adj. mean: -9.7 mmHg
6 wk, 50/100 mg, N 111, all-patients-treated
  Peak Sitting Diastolic Blood Pressure, Mean (on treatment): 90.3 mmHg
6 wk, 50/100 mg, N 111, baseline 99.1
  Mean Change in Peak Sitting Diastolic Blood Pressure: -8.9 mmHg
6 wk, 50/100 mg, N 111, least squares
  Change in Peak Sitting Diastolic Blood Pressure, adj. mean: -9.0 mmHg
12 wk, 50 mg, N 121, all-patients-treated
  Peak Sitting Diastolic Blood Pressure, Mean (on treatment): 90.3 mmHg
12 wk, 50 mg, N 121, baseline 99.8
  Mean Change in Peak Sitting Diastolic Blood Pressure: -9.5 mmHg
12 wk, 50 mg, N 121, least squares
  Change in Peak Sitting Diastolic Blood Pressure, adj. mean: -9.3 mmHg
